From article PMC7884692, “Arginine glycosylation enhances methylglyoxal detoxification” (Scientific Reports, 2021)

Biological target: T1, GloA (Salmonella enterica, UniProt P0A1Q2)
T1 construct: full length, His-tag (modified pET28a, tac promoter), E. coli BL21(DE3); unglycosylated form
T1 sequence (P0A1Q2 1-135): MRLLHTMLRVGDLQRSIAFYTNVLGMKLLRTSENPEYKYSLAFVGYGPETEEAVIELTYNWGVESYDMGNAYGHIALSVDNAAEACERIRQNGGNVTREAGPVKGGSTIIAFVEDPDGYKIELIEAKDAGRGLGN
Test: S-lactoylglutathione production at OD240
Type: biochemical
Details: unglycosylated GloA 50 nM; hemithioacetal from 5 mM glutathione + 5 mM methylglyoxal; 100 mM NaH2PO4 pH 7.0

C[C@@H](O)C(=O)SC[C@H](NC(=O)CC[C@H](N)C(=O)O)C(=O)NCC(=O)O [S-lactoylglutathione]
S-lactoylglutathione production at OD240: both hemithioacetal consumption and S-lactoylglutathione production was measured as a function of time
